Holding throughout (format): functional, tissue-based
Experiment [1] relates to Myometrium. The experiment is described as follows: Induction of contraction in beta-estradiol stimulated rat myometrium.
The test system of experiment [2] is Myometrium. Nature of the experiment: Induction of contraction per minute in beta-estradiol stimulated rat myometrium at 1 nM.
Experiment [3] concerns Myometrium. The experiment is described as follows: Induction of contraction per minute in beta-estradiol stimulated rat myometrium at 0.6 uM.

pEC50: −log10 of the molar value. Calls of active or inactive are those of the source. The calls are words filed in the database; no cut-off is given here.

One may read the pEC50 as the EC50 on a negative log10 scale, so that one unit is a factor of ten. A high value points to a small EC50.

In turn, `CC[C@H](C)[C@@H]1NC(=O)[C@H](Cc2ccc(O)cc2)NC(=O)[C@@H](N)CSSC[C@@H](C(=O)N2CCC[C@H]2C(=O)N[C@@H](CC(C)C)C(=O)NCC(N)=O)NC(=O)[C@H](CC(N)=O)NC(=O)[C@H](CCC(N)=O)NC1=O` [OXYTOCIN] had a pEC50 with Myometrium [1] of 8.77. Also, the outcome with Myometrium [2] was Active.

As for `CC[C@H](C)[C@@H]1NC(=O)[C@H](Cc2ccc(O)cc2)NC(=O)[C@@H](N)CSSC[C@@H](C(=O)N2CCC[C@H]2C(=O)N[C@@H](CC(C)C)C(=O)NCC(=O)NC[C@H]2O[C@@H]3O[C@H]4[C@H](O)[C@@H](O)[C@@H](O[C@H]5[C@H](O)[C@@H](O)[C@@H](O[C@H]6[C@H](O)[C@@H](O)[C@@H](O[C@H]7[C@H](O)[C@@H](O)[C@@H](O[C@H]8[C@H](O)[C@@H](O)[C@@H](O[C@H]9[C@H](O)[C@@H](O)[C@@H](O[C@H]2[C@H](O)[C@H]3O)O[C@@H]9CO)O[C@@H]8CO)O[C@@H]7CO)O[C@@H]6CO)O[C@@H]5CO)O[C@@H]4CO)NC(=O)[C@H](CC(N)=O)NC(=O)[C@H](CCC(N)=O)NC1=O`, the pEC50 in the experiment on Myometrium [1] is 6.40.

For the molecule `CC[C@H](C)[C@@H]1NC(=O)[C@H](Cc2ccc(O)cc2)NC(=O)[C@H](N)CSSC[C@@H](C(=O)N2CCC[C@H]2C(=O)N[C@@H](CC(C)C)C(=O)NCC(=O)NC[C@H]2O[C@@H]3O[C@H]4[C@H](O)[C@@H](O)[C@@H](O[C@H]5[C@H](O)[C@@H](O)[C@@H](O[C@H]6[C@H](O)[C@@H](O)[C@@H](O[C@H]7[C@H](O)[C@@H](O)[C@@H](O[C@H]8[C@H](O)[C@@H](O)[C@@H](O[C@H]9[C@H](O)[C@@H](O)[C@@H](O[C@H]2[C@H](O)[C@H]3O)O[C@@H]9CO)O[C@@H]8CO)O[C@@H]7CO)O[C@@H]6CO)O[C@@H]5CO)O[C@@H]4CO)NC(=O)[C@H](CC(N)=O)NC(=O)[C@H](CCC(N)=O)NC1=O`, in the experiment on Myometrium [3], the result was Active.

Source of the values: ChEMBL document CHEMBL1141533, “Synthesis and pharmacological evaluation of a new targeted drug carrier system: beta-cyclodextrin coupled to oxytocin” (Bioorg Med Chem Lett, 2008).
